Where a name gives a salt, the structure may show the parent alone. Read-outs that look alike come from different tables or passages of the source.
Tested on: sciatic nerve
Experiment: Sciatic nerve blockade after injection at the sciatic nerve notch in rats
Assay type: in vivo
Parameters: AUC of time-% PE curve, sciatic nerve blockade of motor function / AUC of time-% PE curve, sciatic nerve blockade of proprioception / AUC of time-% PE curve, sciatic nerve blockade of nociceptive reaction: unit not given beside the values
Conditions: for ED50: Rattus norvegicus
Procedure: Male Sprague-Dawley rats (weighing about 300 to 350 g); for each dose of each drug, n=6.
In brief, the rats were slightly anesthetized by inhalation of a low concentration of sevoflurane. Then, 200 μL of tested drugs were injected at the sciatic nerve notch at the left hind limb of the rat using a 27-gauge needle connected to a tuberculin syringe (Becton Dickinson, USA, model BND309623-BX). Thereafter, development of sciatic nerve blockade was observed from the paralysis of the left hind limb of the rat. The right hind limb served as a control during the subsequent functional assay
For proprioception, the front half of the rat body and the right hind limb were off the ground at the same time so that the rat was standing on the left hind limb during the measurement.
The differences resided in that: The sciatic nerve notch injections of ED25, ED50 and ED75 were conducted based on the method described in the preceding section “A. Drug injection” of this example. Evaluations of motor function, proprioception and nociceptive reaction were conducted based on the method described in section “B. Neurobehavioral evaluations” of this example.
The differences resided in that: Before the statistical analysis, Shapiro-Wilk test was used to evaluate whether the data were, theoretically, normally distributed.

[1] = dosage of 6.7 mg/kg, sciatic nerve notch injection, rats
[2] = rats, 2ED50 when administered independently, ED50 of each drug when co-administered, mean ± SEM

COc1ccc2c(c1)[C@]13CCCC[C@@H]1[C@H](C2)N(C)CC3 [Dextromethorphan hydrobromide monohydrate]
sciatic nerve blocking effect on nociceptive reaction compared with motor function (ED50 basis, p<0.01, rats): more potent sciatic nerve blocking effect on nociceptive reaction than on motor function
ED50 (read-out: Mean ED50): 3.72 mg/kg
ED50 (read-out: Motor function ED50 (95% CI)): 3.95 mg/kg
ED50 (read-out: Nociceptive reaction ED50 (95% CI)): 3.49 mg/kg
ED50 (read-out: Proprioception ED50 (95% CI)): 3.73 mg/kg
% MPE of sciatic nerve blockade of motor function [1]: about 71±7 % MPE
% MPE of sciatic nerve blockade of nociceptive reaction [1]: ~83±11 % MPE
% MPE of sciatic nerve blockade of proprioception [1]: ~78±7 % MPE
duration of sciatic nerve blockade of motor function [1]: about 77±10 minutes
duration of sciatic nerve blockade of nociceptive reaction [1]: ~85 ± 11 min
duration of sciatic nerve blockade of proprioception [1]: ~78 ± 8 min
effect of co-administration with lidocaine hydrochloride on sciatic nerve blockades (rats, ED50 of each drug): additive effect
AUC of time-% PE curve, sciatic nerve blockade of motor function [2]: 4056 ± 212
AUC of time-% PE curve, sciatic nerve blockade of nociceptive reaction [2]: 6295 ± 643
AUC of time-% PE curve, sciatic nerve blockade of proprioception [2]: 5498 ± 507
duration of sciatic nerve blockade compared with lidocaine hydrochloride (same effective doses (ED25, ED50 or ED75), rats): longer reaction duration
